# Target: GR (Homo sapiens (Human), UniProt P04150)
# Assay: In Vitro GR Luciferase Reporter Assay
# Format: cell-based
# Conditions: CHO-K1-GR-MMTV-Luc reporter cells, antagonist assay, 10 nM Dexamethasone, 18-24 hours
# Source text: Example 4: In Vitro GR Luciferase Reporter Assay
# Cell Line: CHO-K1-GR-MMTV-Luc reporter cells
# Culture Media: DMEM (with phenol red)+10% FBS
# Assay Media: DMEM (without phenol red)+10% CSS
# Culture CHO-K1-GR-MMTV-Luc reporter cells in 15 cm plates in Culture Media at conditions less than 90% confluence.
# Prepare 200×DMSO 1:5 serial dilutions of control and test compounds in 96-well non-sterile V bottom plate in DMSO, 8 serial dilutions for each compound.
# Prepare 5× Assay Media diluted compound serial dilutions in 96-well non-sterile V bottom plate: Add 97.5 uL/well of Assay Media into 96-well then add 2.5 ul of 200× concentration of compounds and mix well.
# Seed cells for Antagonist Assay: […] CHO-K1-GR-MMTV-Luc reporter cells were seeded in a Corning 3707 flat clear bottom 384-well white TC plate in 20 ul of Assay Media containing 12.5 nM Dexamethasone (final concentration=10 nM).
# Add compounds: 5 ul of assay media diluted compounds were added to appropriate wells and followed a quick spin (1000 rpm, 10 sec) to bring media and cells to the bottom of plate. The plates were covered with SealMate film to avoid evaporation and placed in 37° C. incubator for approximately 18-24 hours.
# Read plates: Equilibrate appropriate amount of Promega OneGlo luciferase reagent to room temperature. Remove the plates from incubator and add 25 uL of OneGlo reagent/well by multiple channel pipette and read the plates with Tecan F500 luminometer within 3 minutes.
# The ability of the compounds disclosed herein to inhibit GR activity was quantified and the respective IC50 value was determined. Table 3 provides the cellular IC50 values of various substituted steroidal compounds disclosed herein.
# Sequence of GR (P04150 whole entry): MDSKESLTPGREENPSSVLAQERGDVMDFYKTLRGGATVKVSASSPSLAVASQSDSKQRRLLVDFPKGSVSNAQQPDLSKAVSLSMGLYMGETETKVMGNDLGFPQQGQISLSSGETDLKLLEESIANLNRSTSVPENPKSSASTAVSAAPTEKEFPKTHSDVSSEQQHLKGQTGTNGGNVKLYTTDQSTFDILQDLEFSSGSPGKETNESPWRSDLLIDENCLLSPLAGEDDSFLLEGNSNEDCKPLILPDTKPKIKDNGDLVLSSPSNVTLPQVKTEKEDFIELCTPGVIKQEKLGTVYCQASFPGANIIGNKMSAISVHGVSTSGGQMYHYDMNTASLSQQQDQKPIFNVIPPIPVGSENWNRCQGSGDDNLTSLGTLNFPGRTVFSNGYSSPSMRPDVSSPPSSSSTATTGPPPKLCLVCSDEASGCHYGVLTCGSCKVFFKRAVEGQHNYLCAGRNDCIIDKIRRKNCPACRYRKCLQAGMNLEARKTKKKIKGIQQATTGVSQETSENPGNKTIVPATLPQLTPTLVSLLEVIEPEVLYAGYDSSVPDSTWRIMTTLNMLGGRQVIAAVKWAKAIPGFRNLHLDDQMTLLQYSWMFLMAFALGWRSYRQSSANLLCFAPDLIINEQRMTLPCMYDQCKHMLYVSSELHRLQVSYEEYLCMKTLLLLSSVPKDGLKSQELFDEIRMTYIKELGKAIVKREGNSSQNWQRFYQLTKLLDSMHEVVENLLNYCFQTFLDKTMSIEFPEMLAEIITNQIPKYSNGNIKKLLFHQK
row,IC50 [µM],Compound
1,≤ 0.1,Cc1ccc([C@H]2C[C@@]3(C)[C@@H](CC[C@@]3(O)C#CC(C)(C)C)[C@@H]3CCC4=CC(=O)CCC4=C32)cc1F
2,≤ 0.1,CN(C)c1cc(F)c([C@H]2C[C@@]3(C)[C@@H](CC[C@@]3(O)C#CC(F)(F)F)[C@@H]3CCC4=CC(=O)CCC4=C32)c(F)c1
3,≤ 0.1,COC1CN(c2ccc([C@H]3C[C@@]4(C)[C@@H](CC[C@@]4(O)C#CC(C)(C)C)[C@@H]4CCC5=CC(=O)CCC5=C43)cc2)C1 [drawing 341]
4,≤ 0.1,CC(C)(C)C#C[C@]1(O)CC[C@H]2[C@@H]3CCC4=CC(=O)CCC4=C3[C@@H](c3ccc4c(c3)OCCO4)C[C@@]21C
5,≤ 0.1,CN(C)c1ccc([C@H]2C[C@@]3(C)[C@@H](CC[C@@]3(O)C#Cc3ccccn3)[C@@H]3CCC4=CC(=O)CCC4=C32)cc1
6,≤ 0.1,CC(C)N(C)c1ccc([C@H]2C[C@@]3(C)[C@@H](CC[C@@]3(O)C#CC(C)(C)C)[C@@H]3CCC4=CC(=O)CCC4=C32)cc1
7,≤ 0.1,C[C@H]1CCCN1c1ccc([C@H]2C[C@@]3(C)[C@@H](CC[C@@]3(O)C#CC(C)(C)C)[C@@H]3CCC4=CC(=O)CCC4=C32)cc1

# Tested on: AR
# Assay: In Vitro AR Agonism Assay
# Format: cell-based
# Conditions: LNAR reporter cell line, 10% CSS, 18-24 hrs; ratio of maximum response to that of Mifepristone (set to 1)
# Procedure: Example 5: In Vitro AR Agonism Assay
# The AR agonism assay was done in the LNAR reporter cell line which has overexpressed AR and 4XARE-Luc genes. This cell line is sensitive to even minor partial AR agonism activity in hormone-deprived media (CSS). The assays were done in RPMI (without phenol red)+10% CSS using 6000 LNAR cells/well in 384-well plates and compounds were incubated with cells in […] incubator for 18-24 hrs. OneGlo reagent (25 uL/well) was added and plates were read with luminometer within 3 minutes.
# To gauge the AR partial agonism activity, Mifepristone is included as a standard in the assay. AR agonism assay results are quantified by determining the ratio of the maximum response of individual compounds to the maximum response of Mifepristone (arbitrarily set to 1). Values of Table 4 are reported as Relative Maximum Response to Mifepristone. This general trend of AR agonism was shown for the class of compounds described herein.
row,Compound,Relative Maximum Response to Mifepristone
1,CC(C)C#C[C@]1(O)CC[C@H]2[C@@H]3CCC4=CC(=O)CCC4=C3[C@@H](c3c(F)cc(N4CCOCC4)cc3F)C[C@@]21C [drawing 373],A (A: ≤0.4)
2,CC(C)(C)C#C[C@]1(O)CC[C@H]2[C@@H]3CCC4=CC(=O)CCC4=C3[C@@H](c3ccc(N4CCN(S(C)(=O)=O)CC4)cc3)C[C@@]21C [drawing 382],B (B: >0.4)
3,COC(C)(C)C#C[C@]1(O)CC[C@H]2[C@@H]3CCC4=CC(=O)CCC4=C3[C@@H](c3ccc(N4CCCC4)cc3)C[C@@]21C [drawing 380],A (A: ≤0.4)
4,CN(C)c1ccc([C@H]2C[C@@]3(C)[C@@H](CC[C@@]3(O)C#CC3(C)COC3)[C@@H]3CCC4=CC(=O)CCC4=C32)cc1 [drawing 384],A (A: ≤0.4)
5,CC(C)(C)C#C[C@]1(O)CC[C@H]2[C@@H]3CCC4=CC(=O)CCC4=C3[C@@H](c3ccc(C(C)(C)C)cc3)C[C@@]21C [drawing 367],A (A: ≤0.4)
6,Cc1cc([C@H]2C[C@@]3(C)[C@@H](CC[C@@]3(O)C#CC(C)(C)C)[C@@H]3CCC4=CC(=O)CCC4=C32)ccc1N(C)C [drawing 371],A (A: ≤0.4)
7,CC(C)(C)C#C[C@]1(O)CC[C@H]2[C@@H]3CCC4=CC(=O)CCC4=C3[C@@H](c3ccc4c(c3)OCO4)C[C@@]21C [drawing 378],A (A: ≤0.4)
8,CC(C)C#C[C@]1(O)CC[C@H]2[C@@H]3CCC4=CC(=O)CCC4=C3[C@@H](c3cc(F)c(C(C)C)c(F)c3)C[C@@]21C [drawing 374],A (A: ≤0.4)
9,CN(C)c1ccc([C@H]2C[C@@]3(C)[C@@H](CC[C@@]3(O)C#Cc3ccc(S(C)(=O)=O)cc3)[C@@H]3CCC4=CC(=O)CCC4=C32)cc1 [drawing 383],B (B: >0.4)
10,Cc1c(F)cc([C@H]2C[C@@]3(C)[C@@H](CC[C@@]3(O)C#Cc3ccc(S(C)(=O)=O)cc3)[C@@H]3CCC4=CC(=O)CCC4=C32)cc1F [drawing 372],A (A: ≤0.4)
11,C[C@@H]1C[C@H]2[C@@H]3CCC4=CC(=O)CCC4=C3[C@@H](c3ccc(N(C)C)cc3)C[C@]2(C)[C@]1(O)C#CC(C)(C)C [drawing 379],A (A: ≤0.4)
12,CN(C)c1cc(F)c([C@H]2C[C@@]3(C)[C@@H](CC[C@@]3(O)C#CC(C)(C)C)[C@@H]3CCC4=CC(=O)CCC4=C32)cc1F [drawing 376],A (A: ≤0.4)
13,COC1CN(c2ccc([C@H]3C[C@@]4(C)[C@@H](CC[C@@]4(O)C#CC(C)(C)C)[C@@H]4CCC5=CC(=O)CCC5=C43)cc2)C1 [drawing 381],A (A: ≤0.4)
14,CN(C)c1ccc([C@H]2C[C@@]3(C)[C@@H](CC[C@@]3(O)C#CC(C)(C)C)[C@@H]3CCC4=CC(=O)CCC4=C32)cc1F [drawing 370],A (A: ≤0.4)
15,CC(C)(C)C#C[C@]1(O)CC[C@H]2[C@@H]3CCC4=CC(=O)CCC4=C3[C@@H](c3cccc(C4CC4)c3)C[C@@]21C [drawing 369],A (A: ≤0.4)
16,CN(C)c1ccc([C@H]2C[C@@]3(C)[C@@H](CC[C@@]3(O)C#Cc3ccccc3)[C@@H]3CCC4=CC(=O)CCC4=C32)cc1 [drawing 366],A (A: ≤0.4)
17,CC(C)(C)C#C[C@]1(O)CC[C@H]2[C@@H]3CCC4=CC(=O)CCC4=C3[C@@H](c3ccc(N4CCC[C@@H]4CO)cc3)C[C@@]21C [drawing 385],A (A: ≤0.4)
18,CN(C)c1ccc([C@H]2C[C@@]3(C)[C@@H](CC[C@@]3(O)C#CC3CC3)[C@@H]3CCC4=CC(=O)CCC4=C32)c(F)c1F [drawing 375],A (A: ≤0.4)
19,CCC#C[C@]1(O)CC[C@H]2[C@@H]3CCC4=CC(=O)CCC4=C3[C@@H](c3ccc4c(c3)OCCO4)C[C@@]21C [drawing 377],A (A: ≤0.4)
20,CC(C)(C)C#C[C@]1(O)CC[C@H]2[C@@H]3CCC4=CC(=O)CCC4=C3[C@@H](c3ccc(N4CCCC4)cc3)C[C@@]21C [drawing 368],A (A: ≤0.4)

# Same assay, conditions: LNAR reporter cell line; in concentrations as low as 10 nM
row,Compound,partial AR agonism
1,"CC#C[C@]1(O)CC[C@H]2[C@@H]3CCC4=CC(=O)CCC4=C3[C@@H](c3ccc(N(C)C)cc3)C[C@@]21C [Mifepristone, reference compound]",strong partial AR agonism
